Source: US20250032651A1, “[177LU] LUTETIUM-PSMA I&T COMPOSITION AND DOSIMETRY, KIT, METHOD OF MAKING, AND METHOD OF USING THEREOF” (Curium US LLC, priority 2022, published 2025)

Experiment: Normal organ dosimetry Cycle 1: SPECT/CT, TIACs, OLINDA 2.2.3 absorbed radiation dose
Type: in vivo, human
Settings: for Absorbed Dose, Mean / Absorbed Dose, max / Absorbed Dose, median / Absorbed Dose, min: n = 26
Protocol: This Example presents the biodistribution, dosimetry, and pharmacokinetics (PK) results of a PK/Dosimetry sub-study performed as part of a Phase III trial. Twenty-seven (27) patients were administered a target activity of 7.4±10% GBq of ^177Lu-PSMA-I&T and underwent single photon emission computed tomography (SPECT)/computed tomography (CT) imaging at four timepoints (4 h, 24 h, 48 h, and 168 h). Image data was analysed to compute time-activity curves (TACs) and subsequently time-integrated activity coefficients (TIACs) in each organ of interest and in organs showing appreciable and meaningful ^177Lu-PSMA-I&T activity. Organ Level Internal Dose Assessment (OLINDA 2.2.3) was used to compute organ and whole body absorbed radiation doses for each patient.
All participating sites underwent a rigorous site setup process during which all dose calibrators, scanners, and gamma counters used in the sub-study were calibrated. Sites were allowed to enroll patients in the sub-study only after the completion and approval of all site setup processes by Invicro. Patients underwent SPECT/CT imaging, with anatomical coverage typically extending from the salivary glands to the pelvis, following the administration of a targeted 7.4±10% GBq of ^177Lu-PSMA-I&T at cycle 1. SPECT/CT imaging was performed at four timepoints: 4 h, 24 h, 48 h, and 168 h post-injection. Additionally, a subset of patients imaged at Cycle 1 (16 out of 27), were also imaged at Cycle 3 (Table 2).
The imaging data was analyzed using Invicro's VivoQuant software, a validated software used in a 21 CFR § 11-compliant workflow. The general quantification approach was based on the principles detailed in the Medical Internal Radiation Dose (MIRD) Pamphlet No. 16, No 23, and No 26 as appropriate.
Volume of interest (VOI) (kidneys, bladder, liver, lumbar vertebrae L2-L4, lacrimal glands, salivary glands [parotid and submandibular glands], and whole body) were delineated on each dataset by a trained image analyst. […] Organs were segmented either by drawing the entire contour of the organ, or by placing a sphere in a representative region of the organ and then multiplying by the organ's effective mass (based on patient's height and weight). Segmentation methods for each organ are specified in Table 3 and were consistently applied to each patient.
Clearance of the radiopharmaceutical was derived from a data-appropriate fit of each organ's TAC. Depending on the TAC's shape, the data was fitted with the sum of one, two, or three exponentials, or using a rise and fall model. Fitting was performed with in-house Python software. TIACs were calculated through analytical integration of the curve fit extrapolated to infinity. […] A whole-body TAC was derived from delineating the imaged body. The remainder activity was determined by subtracting the cumulative organ TIACs from the whole body TIAC.
Organ TIACs were input into OLINDA 2.2.3 for the computation of organ and whole-body absorbed doses, using International Commission on Radiological Protection (ICRP)-103 weighing factors. The ICRP-89 derived male phantom was used for dose estimation. Organs and body mass as defined by ICRP-89 were scaled based on height and mass using patient effective mass.^4 The voiding bladder model as implemented in OLINDA was used to determine bladder TIAC, assuming a voiding interval of 4 hours. The human alimentary tract model (HAT model) described in ICRP 100 and implemented in OLINDA was used to compute doses to the small intestine, right colon, left colon and rectum for patients showing clearance through the GI tract. The fraction of injected activity (fIA) cleared via the GI tract was determined by taking the peak fIA in the GI tract over all the imaging timepoints. […] The Red Marrow mass in L2-L4 was assumed to be 6.7% of the total red marrow mass.

[1] = Adrenals, 16 patients imaged at cycle 1 and 3
[2] = Brain, 16 patients imaged at cycle 1 and 3
[3] = Cycle 1, target activity 7.4±10% GBq, patients with mCRPC
[4] = Esophagus, 16 patients imaged at cycle 1 and 3
[5] = Eyes, 16 patients imaged at cycle 1 and 3
[6] = Gallbladder wall, 16 patients imaged at cycle 1 and 3
[7] = Heart wall, 16 patients imaged at cycle 1 and 3

**Q.** What does the source list for O=C([O-])CC[C@H](NC(=O)N[C@@H](CCCCNC(=O)CCCCCCC(=O)NCCCC[C@@H](NC(=O)[C@@H](Cc1ccccc1)NC(=O)[C@@H](Cc1ccc(O)c(I)c1)NC(=O)CC[C@H](C(=O)[O-])N1CCN(CC(=O)[O-])CCN(CC(=O)[O-])CCN(CC(=O)[O-])CC1)C(=O)[O-])C(=O)[O-])C(=O)[O-].[177Lu+3].[H+].[H+].[H+].[H+].[H+] [^177Lu-PSMA I&T, (3S,7S,26R,29R,32R,37R)-29-benzyl-32-(4-hydroxy-3-iodobenzyl)-5,13,20,28,31,34-hexaoxo-37-(4,7,10-tris(carboxymethyl)-1,4,7,10-tetraazacyclododecan-1-yl)-4,6,12,21,27,30,33-heptaazaheptatriacontane-1,3,7,26,37-pentacarboxylic acid; lutetium-177 (III)]?
**A.** Absorbed Dose in Cycle 1, Mean [1]: 0.02 Gy/GBq; Absorbed Dose in Cycle 1, max [1]: 0.08 Gy/GBq; Absorbed Dose in Cycle 1, min [1]: 0.01 Gy/GBq; Absorbed Dose, Mean (Adrenals, Cycle 1): 0.02 Gy/GBq; Absorbed Dose, max (Adrenals, Cycle 1): 0.08 Gy/GBq; Absorbed Dose, median (Adrenals, Cycle 1): 0.02 Gy/GBq; Absorbed Dose, min (Adrenals, Cycle 1): 0.01 Gy/GBq; Absorbed Dose in Cycle 1, Mean (Adrenals, N = 16): 0.02 Gy/GBq; Absorbed Dose in Cycle 1, max (Adrenals, N = 16): 0.08 Gy/GBq; Absorbed Dose in Cycle 1, min (Adrenals, N = 16): 0.01 Gy/GBq; Absorbed Dose in Cycle 1, Mean [2]: 0.01 Gy/GBq; Absorbed Dose in Cycle 1, max [2]: 0.07 Gy/GBq; Absorbed Dose in Cycle 1, min [2]: 0.00 Gy/GBq; Absorbed Dose, Mean (Brain, Cycle 1): 0.01 Gy/GBq; Absorbed Dose, max (Brain, Cycle 1): 0.07 Gy/GBq; Absorbed Dose, median (Brain, Cycle 1): 0.01 Gy/GBq; Absorbed Dose, min (Brain, Cycle 1): 0.00 Gy/GBq; Absorbed Dose in Cycle 1, Mean (Brain, N = 16): 0.01 Gy/GBq; Absorbed Dose in Cycle 1, max (Brain, N = 16): 0.07 Gy/GBq; Absorbed Dose in Cycle 1, min (Brain, N = 16): 0.00 Gy/GBq; mean red marrow (bone marrow) absorbed radiation dose (Cycle 1, image-based, L2-L4): 0.08±0.12 Gy/GBq; mean red marrow absorbed dose (Cycle 1, remaining 20 patients, excluding six high-marrow-dose cases and the superscan patient): 0.02±0.02 Gy/GBq; absorbed radiation dose, salivary glands (mean ± SD) (Cycle 1, target activity 7.4±10% GBq, patient 12-004 excluded): 0.19±0.16 Gy/GBq; absorbed radiation dose, kidneys (mean ± SD) [3]: 0.41±0.15 Gy/GBq; absorbed radiation dose, lacrimal glands (mean ± SD) [3]: 0.40±0.36 Gy/GBq; absorbed radiation dose, left colon (mean ± SD) [3]: 0.47±0.31 Gy/GBq; absorbed radiation dose, rectum (mean ± SD) [3]: 0.44±0.30 Gy/GBq; absorbed radiation dose, urinary bladder (mean ± SD) [3]: 0.41±0.05 Gy/GBq; Absorbed Dose in Cycle 1, Mean [4]: 0.01 Gy/GBq; Absorbed Dose in Cycle 1, max [4]: 0.07 Gy/GBq; Absorbed Dose in Cycle 1, min [4]: 0.00 Gy/GBq; Absorbed Dose, Mean (Esophagus, Cycle 1): 0.02 Gy/GBq; Absorbed Dose, max (Esophagus, Cycle 1): 0.07 Gy/GBq; Absorbed Dose, median (Esophagus, Cycle 1): 0.01 Gy/GBq; Absorbed Dose, min (Esophagus, Cycle 1): 0.00 Gy/GBq; Absorbed Dose in Cycle 1, Mean (Esophagus, N = 16): 0.01 Gy/GBq; Absorbed Dose in Cycle 1, max (Esophagus, N = 16): 0.07 Gy/GBq; Absorbed Dose in Cycle 1, min (Esophagus, N = 16): 0.00 Gy/GBq; Absorbed Dose in Cycle 1, Mean [5]: 0.01 Gy/GBq; Absorbed Dose in Cycle 1, max [5]: 0.07 Gy/GBq; Absorbed Dose in Cycle 1, min [5]: 0.00 Gy/GBq; Absorbed Dose, Mean (Eyes, Cycle 1): 0.01 Gy/GBq; Absorbed Dose, max (Eyes, Cycle 1): 0.07 Gy/GBq; Absorbed Dose, median (Eyes, Cycle 1): 0.01 Gy/GBq; Absorbed Dose, min (Eyes, Cycle 1): 0.00 Gy/GBq; Absorbed Dose in Cycle 1, Mean (Eyes, N = 16): 0.01 Gy/GBq; Absorbed Dose in Cycle 1, max (Eyes, N = 16): 0.07 Gy/GBq; Absorbed Dose in Cycle 1, min (Eyes, N = 16): 0.00 Gy/GBq; Absorbed Dose in Cycle 1, Mean [6]: 0.02 Gy/GBq; Absorbed Dose in Cycle 1, max [6]: 0.07 Gy/GBq; Absorbed Dose in Cycle 1, min [6]: 0.00 Gy/GBq; Absorbed Dose, Mean (Gallbladder wall, Cycle 1): 0.02 Gy/GBq; Absorbed Dose, max (Gallbladder wall, Cycle 1): 0.07 Gy/GBq; Absorbed Dose, median (Gallbladder wall, Cycle 1): 0.01 Gy/GBq; Absorbed Dose, min (Gallbladder wall, Cycle 1): 0.00 Gy/GBq; Absorbed Dose in Cycle 1, Mean (Gallbladder wall, N = 16): 0.02 Gy/GBq; Absorbed Dose in Cycle 1, max (Gallbladder wall, N = 16): 0.07 Gy/GBq; Absorbed Dose in Cycle 1, min (Gallbladder wall, N = 16): 0.00 Gy/GBq; Absorbed Dose in Cycle 1, Mean [7]: 0.01 Gy/GBq; Absorbed Dose in Cycle 1, max [7]: 0.07 Gy/GBq; Absorbed Dose in Cycle 1, min [7]: 0.00 Gy/GBq; Absorbed Dose, Mean (Heart wall, Cycle 1): 0.02 Gy/GBq; Absorbed Dose, max (Heart wall, Cycle 1): 0.07 Gy/GBq; Absorbed Dose, median (Heart wall, Cycle 1): 0.01 Gy/GBq; Absorbed Dose, min (Heart wall, Cycle 1): 0.00 Gy/GBq; Absorbed Dose in Cycle 1, Mean (Heart wall, N = 16): 0.01 Gy/GBq; Absorbed Dose in Cycle 1, max (Heart wall, N = 16): 0.07 Gy/GBq
